Data as given in patent US8338587B2, “Compounds” (AstraZeneca AB, priority 2009, dated 2012).

Target: T1, recombinant human GR (Homo sapiens, UniProt P04150)
T1 construct: purchased Panvera/Invitrogen P2812 (kit P2893)
T1 sequence (P04150 1-777): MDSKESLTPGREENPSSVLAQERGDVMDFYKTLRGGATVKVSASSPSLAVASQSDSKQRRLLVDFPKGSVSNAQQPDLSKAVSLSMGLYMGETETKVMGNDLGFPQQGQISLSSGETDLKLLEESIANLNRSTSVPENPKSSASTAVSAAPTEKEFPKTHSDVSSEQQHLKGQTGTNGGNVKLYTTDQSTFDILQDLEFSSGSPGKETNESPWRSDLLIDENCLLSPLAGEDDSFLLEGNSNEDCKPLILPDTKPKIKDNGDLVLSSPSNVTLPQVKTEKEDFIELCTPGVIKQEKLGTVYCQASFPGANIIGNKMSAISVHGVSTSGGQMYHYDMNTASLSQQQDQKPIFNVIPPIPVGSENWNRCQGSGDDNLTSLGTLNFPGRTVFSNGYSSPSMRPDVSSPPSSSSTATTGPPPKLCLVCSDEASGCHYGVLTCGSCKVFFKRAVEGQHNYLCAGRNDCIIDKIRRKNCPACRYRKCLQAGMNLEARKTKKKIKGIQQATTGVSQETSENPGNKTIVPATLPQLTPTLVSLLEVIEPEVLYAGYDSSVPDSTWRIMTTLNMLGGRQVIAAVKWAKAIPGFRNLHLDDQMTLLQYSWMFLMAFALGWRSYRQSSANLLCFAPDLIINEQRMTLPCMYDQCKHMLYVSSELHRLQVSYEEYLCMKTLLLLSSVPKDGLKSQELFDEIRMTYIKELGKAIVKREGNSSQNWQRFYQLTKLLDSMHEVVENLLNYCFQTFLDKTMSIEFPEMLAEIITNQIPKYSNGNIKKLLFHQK
Assay: Human Glucocorticoid Receptor (GR) Assay (fluorescence polarization competition, Panvera/Invitrogen kit)
Details: GS Red Fluoromone tracer, 2 hours at room temperature, 100% control 10 μM Dexamethasone, read-out: Inhibition of GR binding, IC50
Procedure: Human Glucocorticoid Receptor (GR) Assay The assay is based on a commercial kit from Panvera/Invitrogen (Part number P2893). The assay technology is fluorescence polarization. The kit utilises recombinant human GR (Panvera, Part number P2812), a Fluoromone™ labelled tracer (GS Red, Panvera, Part number P2894) and a Stabilizing Peptide 10× (Panvera, Part number P2815). The GR and Stabilizing Peptide reagents are stored at −70° C. while the GS Red is stored at −20° C. Also included in the kit are 1M DTT (Panvera, Part number P2325, stored at −20° C.) and GR Screening buffer 10× (Panvera, Part number P2814, stored at −70° C. initially but once thawed stored at room temperature). Avoid repeated freeze/thaws for all reagents. The GR Screening buffer 10× comprises 100 mM potassium phosphate, 200 mM sodium molybdate, 1 mM EDTA and 20% DMSO. Test compounds (1 μL) and controls (1 μL) in 100% DMSO were added to black is polystyrene 384-well plates (Greiner low volume black flat-bottom, part number 784076). 0% control was 100% DMSO and 100% control was 10 μM Dexamethasone. Background solution (8 μL; assay buffer 10×, Stabilizing Peptide, DTT and ice cold MQ water) was added to the background wells. GS Red solution (7 μL; assay buffer 10×, Stabilizing Peptide, DTT, GS Red and ice cold water) was added to all wells except background wells. GR solution (7 μL; assay buffer 10×, Stabilizing Peptide, DTT, GR and ice cold water) was added to all wells. The plate was sealed and incubated in a dark at room temperature for 2 hours. The plate was read in an Analyst plate reader (LJL Biosystems/Molecular Devices Corporation) or other similar plate reader capable of recording fluorescence polarization (excitation wavelength 530 nm, emission wavelength 590 nm and a dichroic mirror at 561 nm).

IC50 | SMILES
1 nM | CCC(=O)O[C@]1(C(=O)SCC#N)CC[C@H]2[C@@H]3C[C@H](C)C4=Cc5c(cnn5-c5ccc(F)nc5)C[C@]4(C)[C@H]3[C@@H](O)C[C@@]21C [Example 23, (1R,3aS,3bS,5S,10aR,10bS,11S,12aS)-1-{[(Cyanomethyl)sulfanyl]carbonyl}-7-(6-fluoropyridin-3-yl)-11-hydroxy-5,10a,12a-trimethyl-1,2,3,3a,3b,4,5,7,10,10a,10b,11,12,12a-tetradecahydrocyclopenta[5,6]naphtho[1,2-f]indazol-1-yl propanoate]
0.89 nM | C[C@H]1C[C@@H]2[C@H]([C@@H](O)C[C@@]3(C)[C@H]2CC[C@]3(OC(=O)c2cocn2)C(=O)SCC#N)[C@@]2(C)Cc3cnn(-c4ccc(F)nc4)c3C=C12 [Example 10, (1R,3aS,3bS,5S,10aR,10bS,11S,12aS)-1-{[(Cyanomethyl)sulfanyl]carbonyl}-7-(6-fluoropyridin-3-yl)-11-hydroxy-5,10a,12a-trimethyl-1,2,3,3a,3b,4,5,7,10,10a,10b,11,12,12a-tetradecahydrocyclopenta[5,6]naphtho[1,2-f]indazol-1-yl 1,3-oxazole-4-carboxylate]
11 nM | CCC(=O)O[C@]1(C(=O)SCF)[C@H](C)C[C@H]2[C@@H]3CCC4=Cc5c(cnn5-c5ccc(F)cc5)C[C@]4(C)[C@@]3(F)[C@@H](O)C[C@@]21C [Example 5, (1R,2R,3aS,3bS,10aS,10bR,11S,12aS)-10b-Fluoro-1-{[(fluoromethyl)sulfanyl]carbonyl}-7-(4-fluorophenyl)-11-hydroxy-2,10a,12a-trimethyl-1,2,3,3a,3b,4,5,7,10,10a,10b,11,12,12a-tetradecahydrocyclopenta[5,6]naphtho[1,2-f]indazol-1-yl propanoate]
15 nM | C[C@@H]1C[C@H]2[C@@H]3CCC4=Cc5c(cnn5-c5ccc(F)cc5)C[C@]4(C)[C@@]3(F)[C@@H](O)C[C@]2(C)[C@@]1(OC(=O)c1cocn1)C(=O)SCF [Example 28, (1R,2R,3aS,3bS,10aS,10bR,11S,12aS)-10b-Fluoro-1-{[(fluoromethyl)sulfanyl]carbonyl}-7-(4-fluorophenyl)-11-hydroxy-2,10a,12a-trimethyl-1,2,3,3a,3b,4,5,7,10,10a,10b,11,12,12a-tetradecahydrocyclopenta[5,6]naphtho[1,2-f]indazol-1-yl 1,3-oxazole-4-carboxylate]
1.3 nM | C[C@]12Cc3cnn(-c4ccc(F)nc4)c3C=C1CC[C@H]1[C@@H]3CC[C@](OC(=O)C4CCOC4)(C(=O)SCF)[C@@]3(C)C[C@H](O)[C@@]12F (single isomer, unassigned) [16 (S)/(R) isomer]
1.9 nM | CCC(=O)O[C@]1(C(=O)SCF)[C@H](C)C[C@H]2[C@@H]3CCC4=Cc5c(cnn5-c5ccc(F)nc5)C[C@]4(C)[C@@]3(F)[C@@H](O)C[C@@]21C [Example 2, (1R,2R,3aS,3bS,10aS,10bR,11S,12aS)-10b-Fluoro-1-{[(fluoromethyl)sulfanyl]carbonyl}-7-(6-fluoropyridin-3-yl)-11-hydroxy-2,10a,12a-trimethyl-1,2,3,3a,3b,4,5,7,10,10a,10b,11,12,12a-tetradecahydrocyclopenta[5,6]naphtho[1,2-f]indazol-1-yl propanoate]
1.6 nM | CCC(=O)O[C@]1(C(=O)SCC#N)[C@H](C)C[C@H]2[C@@H]3CCC4=Cc5c(cnn5-c5ccc(F)nc5)C[C@]4(C)[C@@]3(F)[C@@H](O)C[C@@]21C [Example 3, (1R,2R,3aS,3bS,10aS,10bR,11S,12aS)-1-{[(Cyanomethyl)sulfanyl]carbonyl}-10b-fluoro-7-(6-fluoropyridin-3-yl)-11-hydroxy-2,10a,12a-trimethyl-1,2,3,3a,3b,4,5,7,10,10a,10b,11,12,12a-tetradecahydrocyclopenta[5,6]naphtho[1,2-f]indazol-1-yl propanoate]
1.9 nM | CCC(=O)O[C@]1(C(=O)SCF)CC[C@H]2[C@@H]3C[C@H](C)C4=Cc5c(cnn5-c5ccc(F)nc5)C[C@]4(C)[C@H]3[C@@H](O)C[C@@]21C [Example 7, (1R,3aS,3bS,5S,10aR,10bS,11S,12aS)-1-{[(Fluoromethyl)sulfanyl]carbonyl}-7-(6-fluoropyridin-3-yl)-11-hydroxy-5,10a,12a-trimethyl-1,2,3,3a,3b,4,5,7,10,10a,10b,11,12,12a-tetradecahydrocyclopenta[5,6]naphtho[1,2-f]indazol-1-yl propanoate]
6 nM | COCC(=O)O[C@]1(C(=O)SCC#N)[C@H](C)C[C@H]2[C@@H]3CCC4=Cc5c(cnn5-c5ccc(F)cc5)C[C@]4(C)[C@@]3(F)[C@@H](O)C[C@@]21C [Example 27, (1R,2R,3aS,3bS,10aS,10bR,11S,12aS)-10b-Fluoro-1-{[(cyanomethyl)sulfanyl]carbonyl}-7-(4-fluorophenyl)-11-hydroxy-2,10a,12a-trimethyl-1,2,3,3a,3b,4,5,7,10,10a,10b,11,12,12a-tetradecahydrocyclopenta[5,6]naphtho[1,2-f]indazol-1-yl methoxyacetate]
2.1 nM | C[C@H]1C[C@@H]2[C@H]([C@@H](O)C[C@@]3(C)[C@H]2CC[C@]3(OC(=O)C2CC2)C(=O)SCC#N)[C@@]2(C)Cc3cnn(-c4ccc(F)nc4)c3C=C12 [Example 11, (1R,3aS,3bS,5S,10aR,10bS,11S,12aS)-1-{[(Cyanomethyl)sulfanyl]carbonyl}-7-(6-fluoropyridin-3-yl)-11-hydroxy-5,10a,12a-trimethyl-1,2,3,3a,3b,4,5,7,10,10a,10b,11,12,12a-tetradecahydrocyclopenta[5,6]naphtho[1,2-f]indazol-1-yl cyclopropanecarboxylate]
5.5 nM | C[C@@H]1C[C@H]2[C@@H]3CCC4=Cc5c(cnn5-c5ccc(F)cc5)C[C@]4(C)[C@@]3(F)[C@@H](O)C[C@]2(C)[C@@]1(OC(=O)c1cocn1)C(=O)SCC#N [Example 29, (1R,2R,3aS,3bS,10aS,10bR,11S,12aS)-10b-Fluoro-1-{[(cyanomethyl)sulfanyl]carbonyl}-7-(4-fluorophenyl)-11-hydroxy-2,10a,12a-trimethyl-1,2,3,3a,3b,4,5,7,10,10a,10b,11,12,12a-tetradecahydrocyclopenta[5,6]naphtho[1,2-f]indazol-1-yl 1,3-oxazole-4-carboxylate]
1.6 nM | COCC(=O)O[C@]1(C(=O)SCC#N)[C@H](C)C[C@H]2[C@@H]3CCC4=Cc5c(cnn5-c5ccc(F)nc5)C[C@]4(C)[C@@]3(F)[C@@H](O)C[C@@]21C [Example 30, (1R,2R,3aS,3bS,10aS,10bR,11S,12aS)-10b-Fluoro-1-{[(cyanomethyl)sulfanyl]carbonyl}-7-(6-fluoropyridin-3-yl)-11-hydroxy-2,10a,12a-trimethyl-1,2,3,3a,3b,4,5,7,10,10a,10b,11,12,12a-tetradecahydrocyclopenta[5,6]naphtho[1,2-f]indazol-1-yl methoxyacetate]
2.8 nM | C[C@H]1C[C@@H]2[C@H]([C@@H](O)C[C@@]3(C)[C@H]2CC[C@]3(OC(=O)c2ccco2)C(=O)SCF)[C@@]2(C)Cc3cnn(-c4ccc(F)nc4)c3C=C12 [Example 21, (1R,3aS,3bS,5S,10aR,10bS,11S,12aS)-1-{[(Fluoromethyl)sulfanyl]carbonyl}-7-(6-fluoropyridin-3-yl)-11-hydroxy-5,10a,12a-trimethyl-1,2,3,3a,3b,4,5,7,10,10a,10b,11,12,12a-tetradecahydrocyclopenta[5,6]naphtho[1,2-f]indazol-1-yl furan-2-carboxylate]
